According to patent US8962608B2, “Cycloalkylnitrile pyrazole carboxamides as janus kinase inhibitors” (Merck Sharp & Dohme Corp., priority 2011, dated 2015):
Where a name gives a salt, the structure may show the parent alone. Read-outs that look alike come from different tables or passages of the source.

How the values were obtained:
[1] = target: T1, JAK2 (recombinant purified GST-tagged catalytic domain) (Homo sapiens (Human), UniProt O60674);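 further: biochemical JAK kinase assay with HTRF detection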
T1 sequence (O60674 849-1124): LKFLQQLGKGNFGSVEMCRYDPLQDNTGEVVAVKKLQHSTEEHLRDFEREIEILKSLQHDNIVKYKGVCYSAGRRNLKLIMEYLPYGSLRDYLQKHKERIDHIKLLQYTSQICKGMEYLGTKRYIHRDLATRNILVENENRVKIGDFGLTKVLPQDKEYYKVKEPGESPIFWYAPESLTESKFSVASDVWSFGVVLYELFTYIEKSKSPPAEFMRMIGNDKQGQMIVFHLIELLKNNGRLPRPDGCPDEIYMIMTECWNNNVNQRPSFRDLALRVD

[2] = target: JAK1 (recombinant purified GST-tagged catalytic domain) (Homo sapiens (Human), UniProt P23458);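 further: biochemical assay with HTRF read-out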
Chain of JAK1 (recombinant purified GST-tagged catalytic domain) (P23458 875-1153): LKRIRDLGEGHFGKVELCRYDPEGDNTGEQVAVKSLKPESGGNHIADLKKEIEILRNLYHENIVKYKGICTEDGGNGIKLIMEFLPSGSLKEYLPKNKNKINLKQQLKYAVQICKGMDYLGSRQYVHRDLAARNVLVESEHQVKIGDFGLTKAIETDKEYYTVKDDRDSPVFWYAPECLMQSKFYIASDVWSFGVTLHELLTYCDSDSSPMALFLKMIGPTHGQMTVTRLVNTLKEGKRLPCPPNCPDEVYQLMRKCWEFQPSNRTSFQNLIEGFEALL

[3] = target: T1, JAK2 (recombinant purified GST-tagged catalytic domain); test: biochemical

| IC50 [1] [µM] | IC50 [2] [µM] | Structure (SMILES) | IC50 [3] [µM] |
| --- | --- | --- | --- |
| 0.176 | 0.054 | CC1(C)CC[C@H](C#N)[C@@H](n2cc(C(N)=O)c(Nc3ccccc3)n2)C1 (mixture of isomers) [Example 11-1, 1-{[(1S,2S) and (1R,2R)]-2-Cyano-5,5-dimethylcyclohexyl}-3-(phenylamino)-1H-pyrazole-4-carboxamide] |  |
| 0.007 |  | CS(=O)(=O)c1ccc(Nc2nn([C@H]3CCCC[C@H]3C#N)cc2C(N)=O)cc1 (single isomer, unassigned) [Example 42-4, 1-[(1S,2R or 1R,2S)-2-cyanocyclohexyl]-3-{[4-(methylsulfonyl)phenyl]amino}-1H-pyrazole-4-carboxamide] |  |
| 0.03 | 0.002 | N#C[C@H]1C[C@@H](NCC2(O)CC2)CC[C@@H]1n1cc(C(N)=O)c(Nc2ccc(Cl)cc2)n1 (single isomer, unassigned) [Example 28-220, 3-[(4-chlorophenyl)amino]-1-[(1S,2S,4S or 1R,2R,4R)-2-cyano-4-{[(1-hydroxycyclo-propyl)methyl]amino}cyclohexyl]-1H-pyrazole-4-carboxamide] |  |
| 0.014 | 0.002 | N#C[C@H]1CCCCC1n1cc(C(N)=O)c(Nc2ccc(S(=O)(=O)C(F)F)c(CO)c2)n1 (mixture of isomers) [Example 17-64, 1-[(1S,2S and 1R,2R )-2-cyanocyclohexyl]-3-({4-[(difluoromethyl)sulfonyl]-3-(hydroxymethyl)phenyl}amino)-1H-pyrazole-4-carboxamide] |  |
| 0.05 | 0.011 | CC1(C)CC[C@@H](C#N)[C@@H](n2cc(C(N)=O)c(Nc3ccccc3)n2)C1 (mixture of isomers) [Example 11-2, 1-{[(1S,2R) and (1R,2S)]-2-Cyano-5,5-dimethylcyclohexyl}-3-(phenylamino)-1H-pyrazole-4-carboxamide] |  |
| 0.035 | 0.001 | COCCN[C@H]1CCC(n2cc(C(N)=O)c(Nc3ccc(S(=O)(=O)C(F)(F)F)cc3)n2)[C@@H](C#N)C1 (stereo partly drawn) [Example 27-16, 1-{(1S,2S,4S and1R,2R,4R)-2-cyano-4-[(2-methoxyethyl)amino]cyclohexyl}-3-({4-[(trifluoromethyl)sulfonyl]phenyl)amino)-1H-pyrazole-4-carboxamide] |  |
| 0.308 | 0.147 | N#C[C@@H]1CCC2(C[C@H]1n1cc(C(N)=O)c(Nc3ccccc3)n1)OCCO2 (single isomer, unassigned) [Example 45-3, 1-[(7R,8R or 7S,8S)-8-Cyano-1,4-dioxaspiro[4.5]dec-7-yl]-3-(phenylamino)-1H-pyrazole-4-carboxamide] |  |
| 0.028 | 0.001 | CC[N+]1([C@H]2CC[C@H](n3cc(C(N)=O)c(Nc4ccc(Cl)cc4)n3)[C@@H](C#N)C2)CCC1 [Example 31-3, 1-[(1S,3S,4S)-4-{4-carbamoyl-3-[(4-chlorophenyl)amino]-1H-pyrazol-1-yl}-3-cyanocyclohexyl]-1-ethylazetidinium] |  |
|  | 0.002 | COCC(C)N(C)[C@H]1CCC(n2cc(C(N)=O)c(Nc3ccc(Cl)cc3)n2)[C@@H](C#N)C1 (single isomer, unassigned) [Example 28-241, 3-[(4-chlorophenyl)amino]-1-[(1R,2S,4S1S,2S,4S or 1R,2R,4R)-2-cyano-4-{[(1S or 1R)-2-methoxy-1-methylethyl](methyl)ami-no}cyclohexyl]-1H-pyrazole-4-carboxamide] | 0.028 |
| 0.085 |  | CS(=O)(=O)c1ccc(Nc2nn([C@H]3CCCC[C@H]3C#N)cc2C(N)=O)cc1 (single isomer, unassigned) [Example 42-3, 1-[(1S,2R or 1R,2S)-2-cyanocyclohexyl]-3-{[4-(methylsulfonyl)phenyl]amino}-1H-pyrazole-4-carboxamide] |  |
| 0.012 | 0.0009 | CS(=O)(=O)N[C@@H]1CC[C@H](n2cc(C(N)=O)c(Nc3ccc(F)cc3)n2)[C@@H](C#N)C1 (mixture of isomers) [Example 38-2, 1-{(1S,2S,4R and 1R,2R,4S)-2-cyano-4-[(methylsulfonyl)amino]cyclohexyl}-3-[(4-fluorophenyl)amino]-1H-pyrazole-4-carboxamide] |  |
| 0.011 | 0.0005 | CS(=O)(=O)c1ccc(Nc2nn([C@H]3CCC[C@@H]3C#N)cc2C(N)=O)cc1 (mixture of isomers) [Example 1-4, 1-{[(1S,2S) and (1R,2R)-2-cyanocyclopentyl]}-3-{4-(methylsulfonyl)phenyl]amino}-1H-pyrazole-4-carboxamide] |  |
| 0.101 | 0.014 | COC(=O)[C@H]1CCC(n2cc(C(N)=O)c(Nc3ccc(F)cc3)n2)[C@@H](C#N)C1 (stereo partly drawn) [Example 7-2] |  |
| > 1.5 | 0.25 | CN[C@@H]1CC[C@H](C#N)[C@@H](n2cc(C(N)=O)c(Nc3ccc(F)cc3)n2)C1 (mixture of isomers) [Example 6-3, 1-{[(1S,2S,5R) and (1R,2R,5S)]-2-cyano-5-(methylamino)cyclohexyl}-3-[(4-fluorophenyl)amino]-1H-pyrazole-4-carboxamide] |  |
| 0.212 | 0.067 | N#C[C@@H]1CCCC(F)[C@@H]1n1cc(C(N)=O)c(Nc2ccccc2)n1 (stereo partly drawn) [Example 23-2] |  |
| 0.059 | 0.013 | N#C[C@@H]1CCC2(C[C@@H]1n1cc(C(N)=O)c(Nc3ccccc3)n1)OCCO2 (single isomer, unassigned) [Example 45-4, 1-[(7S,8R or 7R,8S)-8-Cyano-1,4-dioxaspiro[4.5]dec-7-yl]-3-(phenylamino)-1H-pyrazole-4-carboxamide] |  |
| 0.008 | 0.003 | C[C@]1(C#N)CC[C@@H](F)C[C@@H]1n1cc(C(N)=O)c(Nc2ccc(F)cc2)n1 (mixture of isomers) [Example 19-1, 1-((1S,2S,5R and 1R,2R,5S)-2-cyano-5-fluoro-2-methylcyclohexyl)-3-((4-fluorophenyl)amino)-1H-pyrazole-4-carboxamide] |  |
| 0.29 | 0.009 | CC1(C)CN(C(=O)[C@@H]2CC[C@@H](n3cc(C(N)=O)c(Nc4ccc(Cl)cc4)n3)[C@H](C#N)C2)C1 (single isomer, unassigned) [Example 35-2, 3-(4-chlorophenylamino)-1-((1R,2R,4R or 1S,2S,4S)-2-cyano-4-(3,3-dimethylazetidine-1-carbonyl)cyclohexyl)-1H-pyrazole-4-carboxamide] |  |
|  | 0.0009 | CC1(N[C@H]2CCC(n3cc(C(N)=O)c(Nc4ccc(Cl)cc4)n3)[C@@H](C#N)C2)CC1 (single isomer, unassigned) [Example 28-205, 3-[(4-chlorophenyl)amino]-1-{(1S,2S,4S or 1R,2R,4R,)-2-cyano-4-[(1-methylcyclopropyl)amino]cyclo-hexyl}-1H-pyrazole-4-carboxamide] |  |
| 0.009 |  | CS(=O)(=O)c1ccc(Nc2nn(C3CCCCC3C#N)cc2C(N)=O)cc1 (stereo not drawn) [Example 2-15, 1-(2-cyanocyclohexyl)-3-{[4-(methylsulfonyl)phenyl]amino}-1H-pyrazole-4-carboxamide] |  |
|  | 0.001 | C[N+]1([C@H]2CC[C@H](n3cc(C(N)=O)c(Nc4ccc(Cl)cc4)n3)[C@@H](C#N)C2)CCC1 [Example 31-2, 1-[(1S,3S,4S)-4-{4-carbamoyl-3-[(4-chlorophenyl)amino]-1H-pyrazol-1-yl}-3-cyanocyclohexyl]-1-methylazetidinium] |  |
|  | 0.0005 | CN(C)[C@@H]1CC[C@H](n2cc(C(N)=O)c(Nc3ccc(S(=O)(=O)C(F)(F)F)cc3)n2)[C@@H](C#N)C1 (mixture of isomers) [Example 27-2, 1-[(1R,3S,4S and 1S,3R,4R)-4-[4-carbamoyl-3-({4-[(trifluoromethyl)sulfonyl]phenyl}amino)-1H-pyrazol-1-yl]-3-cyano-N,N-dimethylcyclohexanaminium trifluoroacetate] |  |
| 0.109 |  | N#C[C@@H]1CCCC[C@@H]1n1cc(C(N)=O)c(Nc2ccc(CC(=O)O)cc2)n1 (mixture of isomers) [Example 3-1, [4-({4-carbamoyl-1-[(1S,2R and 1R,2S)-2-cyanocyclohexyl]-1H-pyrazol-3-yl}amino)phenyl]acetic acid] |  |
| 0.027 |  | CS(=O)(=O)c1ccc(Nc2nn([C@H]3CCCC[C@@H]3C#N)cc2C(N)=O)cc1 (single isomer, unassigned) [Example 42-2, 1-[(1S,2S or 1R,2R)-2-cyanocyclohexyl]-3-{[4-(methylsulfonyl)phenyl]amino}-1H-pyrazole-4-carboxamide] |  |
|  | 0.016 | Cc1cncc(Nc2nn([C@H]3CCCC[C@@H]3C#N)cc2C(N)=O)c1 [Example 17-73, 1-[(1S,2S)-2-cyanocyclohexyl]-3-[(5-methylpyridin-3-yl)amino]-1H-pyrazole-4-carboxamide] |  |
|  | 0.0002 | CN(C)[C@H]1CC[C@H](n2cc(C(N)=O)c(Nc3ccc(S(=O)(=O)C(F)(F)F)cc3)n2)[C@@H](C#N)C1 (mixture of isomers) [Example 27-1, 1-[(1S,3S,4S and 1R,3R,4R)-4-[4-carbamoyl-3-({4-[(trifluoromethyl)sulfonyl]phenyl}amino)-1H-pyrazol-1-yl]-3-cyano-N,N-dimethylcyclohexanaminium trifluoroacetate] |  |

| Structure (SMILES) | IC50 [1] [µM] | IC50 [2] [µM] | IC50 [3] [µM] |
| --- | --- | --- | --- |
| CC(O)(c1ccc(Nc2nn([C@H]3CCCC[C@@H]3C#N)cc2C(N)=O)cn1)C(F)F (single isomer, unassigned) [Example 17-40, 1-[(1S,2S or 1R,2R)-2-cyanocyclohexyl]-3-({6-[(1R or 1S)-2,2-difluoro-1-hydroxy-1-methylethyl]pyridin-3-yl}amino)-1H-pyrazole-4-carboxamide] |  | 0.00024 |  |
| N#C[C@H]1C[C@H](O)CC[C@@H]1n1cc(C(N)=O)c(Nc2ccc(C(F)(F)F)cc2)n1 (single isomer, unassigned) [Example 25-24, 1-[(1S,2S,4R or 1R,2R,4S)-2-cyano-4-hydroxycyclohexyl]-3-{[4-(trifluoromethyl)phenyl]amino}-1H-pyrazole-4-carboxamide] |  | 0.001 | 0.008 |
